Experiments:
Format in all cases: in vivo
[1] = test system: Solanum nigrum (SOLNI); assay: Test 1A glasshouse assay for herbicidal activity, pre-emergence; details: 312 h, evaluated after 13 days, read-out: percentage phytotoxicity SOLNI
Summary of the method: (§1)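 Visual % phytotoxicity (0 = no damage, 100 = total damage) scored 13 d after spraying. Pots sown in standard soil; spray applied 1 d post-sowing for pre-emergence, 8 d for post-emergence. Vehicle acetone/water 50:50 + 0.5% Tween 20; glasshouse 24/16 °C, 14 h light, 65% RH, watered twice daily.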

[2] = test system: Ipomoea hederacea (IPOHE); assay: as above; details: 312 h, evaluated after 13 days, read-out: percentage phytotoxicity IPOHE
Summary of the method: as §1

[3] = test system: Solanum nigrum (SOLNI); assay: Test 1A glasshouse assay for herbicidal activity, post-emergence; details: 312 h, evaluated after 13 days, read-out: percentage phytotoxicity SOLNI
Summary of the method: as §1

[4] = test system: Ipomoea hederacea (IPOHE); assay: as above; details: 312 h, evaluated after 13 days, read-out: percentage phytotoxicity IPOHE
Summary of the method: as §1

[5] = test system: Setaria faberi (SETFA); assay: Biological Example 2 comparative herbicidal data, post-emergence glasshouse screen; details: 312 h, read-out: Post-emergence herbicidal activities (percentage phytotoxicity) SETFA; for pest or weed control at 15.625 g/ha: 15.625 g/ha application rate; for pest or weed control at 62.5 g/ha: 62.5 g/ha application rate; for pest or weed control at 8 g/ha: 8 g/ha application rate; for pest or weed control at 30 g/ha: 30 g/ha application rate
Summary of the method: (§2)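 Plants grown 8 days in a glasshouse (24/16°C day/night, 14 h light, 65% humidity) were sprayed with compound in acetone/water (50:50) containing 0.5% Tween 20. They were kept under the same conditions and watered twice daily. Phytotoxicity was scored visually after 13 days (0 = no damage, 100 = total damage).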

[6] = test system: Alopecurus myosuroides (ALOMY); assay: as above; details: 312 h, read-out: Post-emergence herbicidal activities (percentage phytotoxicity) ALOMY; for pest or weed control at 15.625 g/ha: 15.625 g/ha application rate; for pest or weed control at 62.5 g/ha: 62.5 g/ha application rate; for pest or weed control at 8 g/ha: 8 g/ha application rate; for pest or weed control at 30 g/ha: 30 g/ha application rate
Summary of the method: as §2

[7] = test system: Echinochloa crus-galli (ECHCG); assay: as above; details: 312 h, read-out: Post-emergence herbicidal activities (percentage phytotoxicity) ECHCG; for pest or weed control at 15.625 g/ha: 15.625 g/ha application rate; for pest or weed control at 62.5 g/ha: 62.5 g/ha application rate; for pest or weed control at 8 g/ha: 8 g/ha application rate; for pest or weed control at 30 g/ha: 30 g/ha application rate
Summary of the method: as §2

[8] = test system: Amarantus retroflexus (AMARE); assay: as above; details: Amaranthus retroflexus, read-out: Post-emergence herbicidal activities (percentage phytotoxicity) AMARE; for pest or weed control at 8 g/ha: 8 g/ha application rate; for pest or weed control at 30 g/ha: 30 g/ha application rate
[9] = test system: Abutilon theophasti Medik. (ABUTH); assay: as above; details: read-out: Post-emergence herbicidal activities (percentage phytotoxicity) ABUTH; for pest or weed control at 8 g/ha: 8 g/ha application rate; for pest or weed control at 30 g/ha: 30 g/ha application rate
[10] = test system: Abutilon theophasti Medik. (ABUTH); assay: Test 1A glasshouse assay for herbicidal activity, pre-emergence; details: 312 h, evaluated after 13 days, read-out: percentage phytotoxicity ABUTH
Summary of the method: as §1

[11] = test system: Abutilon theophasti Medik. (ABUTH); assay: Test 1A glasshouse assay for herbicidal activity, post-emergence; details: 312 h, evaluated after 13 days, read-out: percentage phytotoxicity ABUTH
Summary of the method: as §1

| Compound | pest or weed control at 250 g/ha [1] | pest or weed control at 250 g/ha [2] | pest or weed control at 250 g/ha [3] | pest or weed control at 250 g/ha [4] | pest or weed control at 8 g/ha [8] | pest or weed control at 30 g/ha [8] | pest or weed control at 8 g/ha [9] | pest or weed control at 30 g/ha [9] | pest or weed control at 8 g/ha [5] | pest or weed control at 30 g/ha [5] | pest or weed control at 8 g/ha [6] | pest or weed control at 30 g/ha [6] | pest or weed control at 8 g/ha [7] | pest or weed control at 30 g/ha [7] | pest or weed control at 250 g/ha [10] | pest or weed control at 30 g/ha [11] | pest or weed control at 250 g/ha [11] | also measured |
| --- | --- | --- | --- | --- | --- | --- | --- | --- | --- | --- | --- | --- | --- | --- | --- | --- | --- | --- |
| CC#Cc1ccc(C2C(=O)C3CCC(C3)C2=O)c(C)c1 (single isomer, unassigned) [Compound A-2] | 0% | 10% | 20% | 30% |  |  |  |  |  |  |  |  |  |  |  |  |  |  |
| CC#Cc1ccc(C2C(=O)C(C)(C)OC(C)(C)C2=O)c(C)c1 [Compound A-1] | 0% | 0% | 30% | 90% |  |  |  |  |  |  |  |  |  |  |  |  |  | pest or weed control at 15.625 g/ha [5]: 20%; pest or weed control at 62.5 g/ha [5]: 40%; pest or weed control at 15.625 g/ha [6]: 10%; pest or weed control at 62.5 g/ha [6]: 80%; pest or weed control at 15.625 g/ha [7]: 20%; pest or weed control at 62.5 g/ha [7]: 90% |
| CC#Cc1cc(C)c(C2C(=O)C3CCC(C3)C2=O)c(C)c1 (stereo not drawn) [Compound A-5] |  |  |  |  | 0% | 10% | 0% | 0% | 30% | 70% | 50% | 80% | 80% | 100% | 0% | 0% | 60% |  |
| Cc1cc(C#CCl)cc(C)c1C1C(=O)C2CCC(C2)C1=O (stereo not drawn) [Compound A-6] | 20% | 10% | 20% | 20% |  |  |  |  |  |  |  |  |  |  |  |  |  | pest or weed control at 15.625 g/ha [5]: 90%; pest or weed control at 62.5 g/ha [5]: 90%; pest or weed control at 15.625 g/ha [6]: 70%; pest or weed control at 62.5 g/ha [6]: 70%; pest or weed control at 15.625 g/ha [7]: 90%; pest or weed control at 62.5 g/ha [7]: 100%; pest or weed control at 62.5 g/ha ([3]; 62.5 g/ha): 20%; pest or weed control at 62.5 g/ha ([4]; 62.5 g/ha): 30% |
| Cc1cc(C#CCl)cc(C)c1C1C(=O)CC(CC2CCOCC2)CC1=O (stereo not drawn) [Compound A-8] | 70% | 30% | 80% | 70% |  |  |  |  |  |  |  |  |  |  |  |  |  | pest or weed control at 15.625 g/ha [5]: 80%; pest or weed control at 62.5 g/ha [5]: 90%; pest or weed control at 15.625 g/ha [6]: 70%; pest or weed control at 62.5 g/ha [6]: 80%; pest or weed control at 15.625 g/ha [7]: 90%; pest or weed control at 62.5 g/ha [7]: 100% |
| CC#Cc1cc(C)c(C2C(=O)CC(CC3CCOCC3)CC2=O)c(C)c1 (stereo not drawn) [Compound A-9] | 70% | 20% | 80% | 50% |  |  |  |  |  |  |  |  |  |  |  |  |  | pest or weed control at 15.625 g/ha [5]: 80%; pest or weed control at 62.5 g/ha [5]: 90%; pest or weed control at 15.625 g/ha [6]: 80%; pest or weed control at 62.5 g/ha [6]: 90%; pest or weed control at 15.625 g/ha [7]: 100%; pest or weed control at 62.5 g/ha [7]: 100% |
| CC#Cc1cc(C)c(C2C(=O)C3CCC(C3)C2=O)c(OC)c1 (stereo not drawn) [Compound A-10] |  |  |  |  |  |  |  |  |  |  |  |  |  |  | 0% |  | 80% |  |
| CC#Cc1cc(Cl)c(C2C(=O)C3CCC(C3)C2=O)c(OC)c1 (stereo not drawn) [Compound A-12] |  |  |  |  | 0% | 0% | 10% | 40% | 50% | 90% | 40% | 90% | 90% | 100% | 0% |  | 50 to 60% | pest or weed control at 62.5 g/ha ([10]; 62.5 g/ha): 0%; pest or weed control at 62.5 g/ha ([11]; 62.5 g/ha): 0% |
| CC#Cc1cc(C)c(C2C(=O)CC(c3ccccn3)CC2=O)c(C)c1 (stereo not drawn) [Compound A-13] |  |  |  |  | 0% | 30% | 0% | 40% | 80% | 90% | 60% | 70% | 80% | 80% | 70% | 40% | 80% | pest or weed control at 30 g/ha ([10]; 30 g/ha): 30% |
| CC#Cc1cc(C)c(C2=C(OC(=O)OC)CC(c3ccccn3)CC2=O)c(C)c1 (stereo not drawn) [Compound A-14] |  |  |  |  |  |  |  |  |  |  |  |  |  |  | 70% |  | 80% |  |
| CC#Cc1cc(C)c(C2=C(OC(C)=O)CC(c3ccccn3)CC2=O)c(C)c1 (stereo not drawn) [Compound A-15] |  |  |  |  |  |  |  |  |  |  |  |  |  |  | 50% | 20% | 80% |  |
| CC#Cc1cc(Cl)c(C2C(=O)C3CCC(C3)C2=O)c(OCC)c1 (stereo not drawn) [Compound A-16] |  |  |  |  |  |  |  |  |  |  |  |  |  |  | 70% | 60% | 60% |  |
| CC#Cc1cc(Cl)c(C2C(=O)C3CCC(C)(C2=O)C3(C)C)c(OC)c1 (stereo not drawn) [Compound A-17] |  |  |  |  |  |  |  |  |  |  |  |  |  |  | 70% |  | 10% |  |
| CC#Cc1cc(Cl)c(C2C(=O)CC3(CCOCC3)CC2=O)c(OC)c1 [Compound A-20, 9-(2-Chloro-6-methoxy-4-prop-1-ynyl-phenyl)-3-oxa-spiro[5.5]undecane-8,10-dione] |  |  |  |  | 10% | 80% | 50% | 80% | 90% | 100% | 90% | 100% | 100% | 100% | 80% | 80% | 80% | pest or weed control at 8 g/ha ([11]; 8 g/ha): 50% |
| CC#Cc1cc(C)c(C2C(=O)CC(CCSC)CC2=O)c(C)c1 (stereo not drawn) [Compound A-21, 2-(2,6-Dimethyl-4-prop-1-ynyl-phenyl)-5-(2-methylsulfanyl-ethyl)cyclohexane-1,3-dione] |  |  |  |  | 30% | 80% | 70% | 10% | 50% | 70% | 50% | 50% | 80% | 80% | 10% | 10% | 60% |  |

Reference: patent publication US9615577B2, “Herbicidally active cyclic dione compounds, or derivatives therefor, substituted by a phenyl which has an alkynyl-containing substituent” (Syngenta Limited, priority 2012, dated 2017)
